Peptide text beside a SMILES is read from it.
Key:
[1] = Peptide stability in human serum; details: human serum (50% v/v) from a healthy donor
[2] = biological target: His-tagged Spike RBD protein (SARS-CoV-2) (UniProt P0DTC2); experiment: BLI

Molecule	half-life at 1 mM [1]	Kd [2]
CC(C)C[C@H](NC(=O)[C@@H](N)[C@@H](C)O)C(=O)N[C@@H](Cc1c[nH]cn1)C(N)=O [TLH] (H-Thr-Leu-His-NH2)	262 min	
CC[C@H](C)[C@H](NC(=O)[C@H](Cc1ccccc1)NC(=O)[C@@H](N)C(C)C)C(N)=O [VFI] (H-Val-Phe-Ile-NH2)	746 min	
tripeptide TLH		22.8 µM
tripeptide VFI		28.4 µM
